US10358446B2, “Bruton's tyrosine kinase inhibitors” (Zibo Biopolar Changsheng Pharmaceutical Co. Ltd., priority 2015, dated 2019)

Each compound was assayed against BTK (Homo sapiens (Human), UniProt Q06187) (assay: Btk kinase assay (HTRF)). Settings: [ATP]=80 μM, BTK=3.4 nM; read-out: BTK Inhibition.
Format: biochemical
Protocol: Btk kinase activity was determined using a homogenous time resolved fluorescence (HTRF) methodology. Measurements were performed in a reaction volume of 15 μL using 384-well assay plates. Kinase enzyme, inhibitor, ATP and 1 μM peptide substrate were incubated in a reaction buffer compose of Hepes 50 mM (pH7.0), NaN3 0.02%, BSA 0.01%, Orthocanadate 0.1 mM. After one hour, the kinase reaction was quenched by the addition of […] antibody and XL-665 in 1× Detection buffer containing 60 mM EDTA (Cisbio), and the mixture was allowed to incubate for one hour. The HTRF signal was measured on a multimode plate reader (EnVision® Multilabel Reader, Perkin Elmer) with an excitation wavelength (λEx) of 330 nm and detection wavelengths (λEm) of 615 and 665 nrm. Activity was determined by the ratio of the fluorescence at 665 nm to that at 615 nm. For each compound, enzyme activity as measured at various concentrations of compound, Negative control reactions were performed in the absence of inhibitor in two replicates and eight no enzyme controls were used to determine baseline fluorescence levels. IC50s were obtained according to the equation: […] For BTK assay, [ATP]=80 μM, BTK=3.4 nM.

Sequence of BTK (Q06187 whole entry, species assumed): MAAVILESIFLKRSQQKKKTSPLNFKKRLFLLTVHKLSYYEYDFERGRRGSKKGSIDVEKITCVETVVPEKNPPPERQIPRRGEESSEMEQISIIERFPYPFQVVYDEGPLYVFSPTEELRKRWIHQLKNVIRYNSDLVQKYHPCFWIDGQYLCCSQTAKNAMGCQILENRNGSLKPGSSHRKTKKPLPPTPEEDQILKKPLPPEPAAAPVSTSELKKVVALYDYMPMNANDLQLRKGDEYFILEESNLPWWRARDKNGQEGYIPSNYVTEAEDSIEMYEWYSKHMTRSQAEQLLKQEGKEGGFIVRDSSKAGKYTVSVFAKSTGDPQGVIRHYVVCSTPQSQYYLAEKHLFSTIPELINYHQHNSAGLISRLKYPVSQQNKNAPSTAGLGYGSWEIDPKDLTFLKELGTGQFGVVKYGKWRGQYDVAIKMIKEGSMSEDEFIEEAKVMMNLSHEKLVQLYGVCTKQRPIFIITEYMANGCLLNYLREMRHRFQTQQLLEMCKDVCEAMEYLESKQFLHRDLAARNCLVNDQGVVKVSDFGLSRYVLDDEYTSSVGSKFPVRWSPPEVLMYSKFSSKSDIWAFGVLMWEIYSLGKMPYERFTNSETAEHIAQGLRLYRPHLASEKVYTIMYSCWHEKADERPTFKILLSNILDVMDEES

IC50 | SMILES
0.01 to 0.1 µM | C=CC(=O)N1CC[C@@H](n2c(=O)n(-c3ccc(Oc4cccc(C)c4)c(F)c3)c3cnccc32)C1 [Example 78, (R)-1-(1-acryloylpyrrolidin-3-yl)-3-(3-fluoro-4-(m-tolyloxy)phenyl)-1H-imidazo[4,5-c]pyridin-2(3H)-one]
0.01 to 0.1 µM | C=CC(=O)Nc1cccc(-n2c(=O)n(-c3ccc(OCc4ccc(F)cc4)cc3)c3cnccc32)c1 [Example 247, N-(3-(3-(4-((4-fluorobenzyl)oxy)phenyl)-2-oxo-2,3-dihydro-1H-imidazo[4,5-c]pyridin-1-yl)phenyl)acrylamide]
0.01 to 0.1 µM | C=CC(=O)Nc1cccc(-n2c(=O)n(-c3cccc(Oc4cccc(Cl)c4F)c3)c3cnccc32)c1 [Example 96, N-(3-(3-(3-(3-chloro-2-fluorophenoxy)phenyl)-2-oxo-2,3-dihydro-1H-imidazo[4,5-c]pyridin-1-yl)phenyl)acrylamide]
1 to 10 µM | C=CC(=O)N1CCC[C@@H](n2c(=O)n(-c3ccc(Oc4ccccc4)cc3)c3ccncc32)C1 [Example 122, (R)-3-(1-acryloylpiperidin-3-yl)-1-(4-phenoxyphenyl)-1H-imidazo[4,5-c]pyridin-2(3H)-one]
1 to 10 µM | C=CC(=O)N1CC[C@@H](n2c(=O)n(-c3ccc(C(=O)N4CCOCC4)cc3)c3cnccc32)C1 [Example 250, (R)-1-(1-acryloylpyrrolidin-3-yl)-3-(4-(morpholine-4-carbonyl)phenyl)-1H-imidazo[4,5-c]pyridin-2(3H)-one]
1 to 10 µM | C=CC(=O)N1CC[C@@H](n2c(=O)n(-c3ccc(C(=O)NCc4cccc(OC)c4)cc3)c3cnccc32)C1 [Example 256, (R)-4-(1-(1-acryloylpyrrolidin-3-yl)-2-oxo-1H-imidazo[4,5-c]pyridin-3(2H)-yl)-N-(3-methoxybenzyl)benzamide]
≥ 10 µM | C=CC(=O)N1CC[C@H](n2c(=O)n(-c3ccc(Oc4ccccc4)cc3)c3c(/C(N)=N/O)nccc32)C1 [Example 179, (S,Z)-1-(1-acryloylpyrrolidin-3-yl)-N′-hydroxy-2-oxo-3-(4-phenoxyphenyl)-2,3-dihydro-1H-imidazo[4,5-c] pyridine-4-carboximidamide]

The next lines start with the compound.

SMILES | IC50
C=CC(=O)N1CC[C@H](n2c(=O)n(-c3ccc(NC(=O)c4ccc(C)c(C(F)(F)F)c4)cc3)c3cnccc32)C1 [Example 269, (S)-N-(4-(1-(1-acryloylpyrrolidin-3-yl)-2-oxo-1H-imidazo[4,5-c]pyridin-3(2H)-yl)phenyl)-4-methyl-3-(trifluoromethyl)benzamide] | 0.1 to 1 µM
C=CC(=O)Nc1cccc(-n2c(=O)n(-c3cccc(-c4ccc(C)cc4)c3)c3cnccc32)c1 [Example 272, N-(3-(3-(4′-methyl-[1,1′-biphenyl]-3-yl)-2-oxo-2,3-dihydro-1H-imidazo [4,5-c]pyridin-1-yl)phenyl)acrylamide] | 0.1 to 1 µM
C=CC(=O)N1CC[C@@H](n2c(=O)n(-c3ccc(Oc4cccc(F)c4Cl)cc3)c3cnccc32)C1 [Example 102, (R)-1-(1-acryloylpyrrolidin-3-yl)-3-(4-(2-chloro-3-fluorophenoxy)phenyl)-1,3-dihydro-2H-imidazo[4,5-c]pyridin-2-one] | 0.01 to 0.1 µM
CC#CC(=O)N1CC[C@@H](n2c(=O)n(-c3ccc(Oc4ccccc4)cc3)c3cnccc32)C1 [Example 34, (R)-1-(1-(but-2-ynoyl)pyrrolidin-3-yl)-3-(4-phenoxyphenyl)-1H-imidazo [4,5-c]pyridin-2(3H)-one] | ≥ 10 µM
C=CC(=O)Nc1cccc(-n2c(=O)n(-c3ccc(Oc4cccc(F)c4C)cc3)c3cnccc32)c1 [Example 79, N-(3-(3-(4-(3-fluoro-2-methylphenoxy)phenyl)-2-oxo-2,3-dihydro-1H-imidazo[4,5-c]pyridin-1-yl)phenyl)acrylamide] | 0.01 to 0.1 µM
C=CC(=O)Nc1cccc(-n2c(=O)n(-c3ccc(C(=O)Nc4cccc(C)c4)cc3)c3cnccc32)c1 [Example 255, 4-(1-(3-acrylamidophenyl)-2-oxo-1H-imidazo[4,5-c]pyridin-3(2H)-yl)-N-(m-tolyl)benzamide] | 1 to 10 µM
